Test system: diabetic rats
Test: Anti-hyperglycemic activity evaluation, Streptozotocin (STZ) model
Type: in vivo, albino rats
Details: for inhibition in vivo at 50 mg/kg: compound 50 mg/kg oral; for Blood glucose level 5-day / Blood glucose level 10-day: mean ± SEM, n=6
Description: Diabetes was experimentally generated in albino rats by intraperitoneal injection of a solution of STZ (60 mg/kg) in sterile normal saline. […] Rats were partitioned into 8 groups consisting of 6 rats in each group (n=6). The control group consisted of the first group of diabetic animals serving as vehicle control and treated orally with carboxymethylcellulose (CMC) (0.5%, 1 ml) alone; Group 2 of diabetic rats was treated with rosiglitazone 100 mg/kg. […] Blood collections were operated by tail vein sampling. The measurements of blood glucose were performed at 0, 5 and 10 days interval. Bayer's Contour TS system was used in order to monitor blood glucose level. In overnight-fasted rats, fasting blood glucose level was measured in all the groups as a base line at 0 time. All blood glucose data were expressed as mean±SEM. The analysis of the data including the variance analysis (ANOVA) and all mean comparisons were accomplished by Tukey-Kramer method. Results are regarded as significant when P<0.01. The anti-hyperglycemic activity (AA) was presented as % AA and computed as follows: % AA=100×[blood glucose level (0-day)−blood glucose level (10-day)]/[blood glucose level (0-day)].

[1] = Rattus norvegicus, 240 h, % AA=100×[glucose (0-day)−glucose (10-day)]/[glucose (0-day)]
[2] = compound 50 mg/kg oral for 7 continuous days

| SMILES | inhibition in vivo at 50 mg/kg [1] [%] | Blood glucose level 5-day [2] [mg/dL] | Blood glucose level 10-day [2] [mg/dl] | inhibition in vivo at 100 mg/kg (Rattus norvegicus, po, 240 h, rosiglitazone 100 mg/kg, % AA=100×[glucose (0-day)−glucose (10-day)]/[glucose (0-day)]) [%] | Blood glucose level 5-day (rosiglitazone 100 mg/kg) [mg/dL] | Blood glucose level 10-day (rosiglitazone 100 mg/kg) [mg/dl] |
| --- | --- | --- | --- | --- | --- | --- |
| O=C(CCOc1ccc(C=C2C(=O)NNC2=O)cc1)Nc1nc2ccc(Cl)cc2s1 [Compound 8, N-(6-chlorobenzo[d]thiazol-2-yl)-3-(4-((3,5-dioxopyrazolidin-4-ylidene)methyl)phenoxy)propanamide] | 68.7 | 166.5 ± 3.7 | 106.1 ± 5.1 | – | – | – |
| O=C(COc1ccc(C=C2C(=O)NNC2=O)cc1)Nc1nc2c(Cl)cc(F)cc2s1 [Compound 7, N-(4-chloro-6-fluorobenzo[d]thiazol-2-yl)-2-(4-((3,5-dioxopyrazolidin-4-ylidene)methyl)phenoxy)acetamide] | 66.3 | 174.1 ± 4.2 | 115.2 ± 4.2 | – | – | – |
| O=C(COc1ccc(C=C2C(=O)NNC2=O)cc1)Nc1nc2ccc(C(F)(F)F)cc2s1 [Compound 2, 2-(4-((3,5-dioxopyrazolidin-4-ylidene)methyl)phenoxy)-N-(6-(trifluoromethyl)benzo[d]thiazol-2-yl)acetamide] | 64.3 | 163.7 ± 2.8 | 123.4 ± 3.5 | – | – | – |
| O=C(COc1ccc(C=C2C(=O)NNC2=O)cc1)Nc1nc2ccc(Cl)cc2s1 [Compound 1, N-(6-chlorobenzo[d]thiazol-2-yl)-2-(4-((3,5-dioxopyrazolidin-4-ylidene)methyl)phenoxy)acetamide] | 63.5 | 157.5 ± 3.7 | 123.9 ± 4.2 | – | – | – |
| O=C(CCOc1ccc(C=C2C(=O)NNC2=O)cc1)Nc1nc2ccc(OC(F)(F)F)cc2s1 [Compound 10, 3-(4-((3,5-dioxopyrazolidin-4-ylidene)methyl)phenoxy)-N-(6-(trifluoromethoxy)benzo[d]thiazol-2-yl)propanamide] | 69.8 | 153.2 ± 4.2 | 105.2 ± 4.7 | – | – | – |
| Cc1cc2nc(NC(=O)CCOc3ccc(C=C4C(=O)NNC4=O)cc3)sc2cc1Cl [Compound 11, N-(6-chloro-5-methylbenzo[d]thiazol-2-yl)-3-(4-((3,5-dioxopyrazolidin-4-ylidene)methyl)phenoxy)propanamide] | 68.4 | 168.7 ± 3.4 | 107.0 ± 2.4 | – | – | – |
| O=C(CCOc1ccc(C=C2C(=O)NNC2=O)cc1)Nc1nc2c(Cl)cc(F)cc2s1 [Compound 14, N-(4-chloro-6-fluorobenzo[d]thiazol-2-yl)-3-(4-((3,5-dioxopyrazolidin-4-ylidene)methyl)phenoxy)propanamide] | 68.9 | 162.5 ± 5.6 | 109.6 ± 5.4 | – | – | – |
| O=C(CCOc1ccc(C=C2C(=O)NNC2=O)cc1)Nc1nc2ccc(C(F)(F)F)cc2s1 [Compound 9, 3-(4-((3,5-dioxopyrazolidin-4-ylidene)methyl)phenoxy)-N-(6-(trifluoromethyl)benzo[d]thiazol-2-yl)propanamide] | 70.1 | 159.6 ± 4.6 | 105.4 ± 3.2 | – | – | – |
| CN(CCOc1ccc(CC2SC(=O)NC2=O)cc1)c1ccccn1 (stereo not drawn) [Rosiglitazone, reference compound] | – | – | – | 62 | 162.1 ± 3.8 | 129.7 ± 3.7 |
| O=C(COc1ccc(C=C2C(=O)NNC2=O)cc1)Nc1nc2ccc(OC(F)(F)F)cc2s1 [Compound 3, 2-(4-((3,5-dioxopyrazolidin-4-ylidene)methyl)phenoxy)-N-(6-(trifluoromethoxy)benzo[d]thiazol-2-yl)acetamide] | 59.5 | 172.4 ± 3.4 | 141.6 ± 2.8 | – | – | – |
| CCc1cc2nc(NC(=O)COc3ccc(C=C4C(=O)NNC4=O)cc3)sc2cc1Cl [Compound 5, N-(6-chloro-5-ethylbenzo[d]thiazol-2-yl)-2-(4-((3,5-dioxopyrazolidin-4-ylidene)methyl)phenoxy)acetamide] | 62.8 | 155.3 ± 3.9 | 127.1 ± 3.1 | – | – | – |
| Cc1cc2nc(NC(=O)COc3ccc(C=C4C(=O)NNC4=O)cc3)sc2cc1Cl [Compound 4, N-(6-chloro-5-methylbenzo[d]thiazol-2-yl)-2-(4-((3,5-dioxopyrazolidin-4-ylidene)methyl)phenoxy)acetamide] | 66.4 | 160.2 ± 4.1 | 113.4 ± 2.6 | – | – | – |
| Cc1c(Cl)ccc2nc(NC(=O)CCOc3ccc(C=C4C(=O)NNC4=O)cc3)sc12 [Compound 13, N-(6-chloro-7-methylbenzo[d]thiazol-2-yl)-3-(4-((3,5-dioxopyrazolidin-4-ylidene)methyl)phenoxy)propanamide] | 65.5 | 168.4 ± 4.3 | 119.1 ± 4.3 | – | – | – |
| Cc1c(Cl)ccc2nc(NC(=O)COc3ccc(C=C4C(=O)NNC4=O)cc3)sc12 [Compound 6, N-(6-chloro-7-methylbenzo[d]thiazol-2-yl)-2-(4-((3,5-dioxopyrazolidin-4-ylidene)methyl)phenoxy)acetamide] | 58.6 | 161.3 ± 4.5 | 143.9 ± 5.3 | – | – | – |
| CCc1cc2nc(NC(=O)CCOc3ccc(C=C4C(=O)NNC4=O)cc3)sc2cc1Cl [Compound 12, N-(6-chloro-5-ethylbenzo[d]thiazol-2-yl)-3-(4-((3,5-dioxopyrazolidin-4-ylidene)methyl)phenoxy)propanamide] | 64.2 | 171.6 ± 5.1 | 121.9 ± 3.6 | – | – | – |

— patent US11958847B1, “Pyrazolidinedione derivatives and their use as PPAR-gamma inhibitors” (KING FAISAL UNIVERSITY, priority 2023, dated 2024)
